In patent publication US6573296B2, “Therapeutic quassinoid preparations with antineoplastic, antiviral, and herbistatic activity” (priority 1997, dated 2003):

Legend:
[1] = in vivo chemotherapy of SC transplanted tumor; design: species or system mice; settings: mouse, in vivo; C38; IV; days: Glaucarubinone 3,5-10, Holacanthone 3-12, Glaucarubolone 3-6, Chaparrinone 3-9; read-out: MTD Total Dose
Text: (§1) Mice. Inbreds mice used were C57B1/6, C3H/He, Balb/c, and DBA/2; hybrids were: B6D2F1 (C57B1/6 females×DBA/2 males), and CD2F1 (Balb/c females×DBA/2 males). All mice were obtained from the Frederick Cancer Research Facility, Frederick, Md.
(§2) Tumors were maintained in the mouse strain of origin and were transplanted into either an appropriate F1 hybrid or the strain of origin for therapy trials. All mice were over 17 g at the start of therapy; the range of individual body weights in each experiment was within 2 g. The mice were supplied food and water ad libitum.
(§3) Antitumor Agents. The compound easily dissolved in the diluent which consisted of 3% [V/V (100%-Pure)] Ethanol, 1% (V/V) polyoxyethylanesorbitan monopalmitate (P.O.E.40) and 96% sterile distilled water. The primary route of administration was intravenous (IV).
(§4) […] Chemotherapy. The methods of protocol design, tumor transplantation, drug treatment, endpoint determination, definition of terms, toxicity evaluation, data analysis, quantification of tumor cell kill, and the biologic significance of the drug treatment results with transplantable tumors have been presented. The following is a brief summary of those methods as they apply to the work described.
(§5) The animals necessary to begin an experiment were pooled, implanted bilaterally SC on day 0 with 30 to 60 mg tumor fragments using a 12 gauge trocar, and again pooled before randomization to the various treatment and control group. Chemotherapy was either started within 3 days after tumor implantation while the number of cells per mouse was relatively small (10^7 to 10^8 cells), or allowed to grow to palpation (about 3×10^8 cells) in a more advanced stage trial.
(§6) Tumors were measured with a caliper either once or twice weekly (as needed) until either tumors exceeded 1500 mg or cure was. assured. Tumor weights were estimated from two-dimensional measurements:
(§7) Tumor Weight (mg)=(a×b^2)/2, where a and b are the tumor length and width (mm) respectively.
(§8) Tumor growth delay. (T-C value), where T is the median time (in days) required for the treatment group tumors to reach a predetermined size, and C is the median time (in days) for the control group tumors to reach the same size. Tumor-free survivors were excluded from these calculations (cures were tabulated separately).
(§9) Calculation of tumor cell kill. For SC growing tumors, the log10 cell kill was calculated from the following formula: [formula]
(§10) Where T-C is the tumor growth delay (in days) as described above and Td is the tumor volume doubling time (in days), the latter estimated from the best fit straight line from a log-linear growth plot of the control-group tumors in exponential growth (500 to 1500 mg range). The conversion of the T-C values of log10 cell kill is possible because the Td for tumors regrowing post-treatment approximated the Td values of the tumors in untreated control mice.
(§11) Determination of activity by tumor growth inhibition (T/C value). Measurements were carried out simultaneously in both the treatment and control groups. When the control group tumors reached approximately 750-1500 mg in size (median of group), the median tumor weight of each group was determined (including zeros).

[2] = test system: colon adenocarcinoma #38 [C38]; experiment: in vivo chemotherapy of SC transplanted tumor; design: species or system mice
Text: as §1, §2, §3, §4, §5, §6, §7, §8, §9, §10, §11

[3] = test system: HIV infected human MOLT-4 cells; experiment: differential killing of HIV infected cells; format: cell-based; settings: FIGS. 8 and 9
human rhinovirus-14 = experiment: cytopathic effect of rhinovirus in HeLa cells; format: cell-based; settings: HeLa cells (Wisconsin strain), visually observed
Procedure: C. HeLa cells (Wisconsin strain, Berlin, Germany) were contacted with human rhinovirus-14. Infected cells (Wisconsin strain) were visually observed. […] HeLa cells were not killed by any compounds used. Cells of other HeLa lines (eg. ATCC CCL2) were killed. Glaucarubolone, simalikalactone D and chaparrinone were tested on cell killing and virus production by primary blood monocytes. All three drugs were tested at five concentrations (0, 10^−9, 10^−8, 10^−7, and 10^−6 M). Drugs were given at different times pre-infection, given at the time of infection, or were administered at different times post-infection.

[4] = test system: cabbage, radish, carrot, tomato and sorghum seeds; experiment: seed germination; format: in vivo
Procedure: To evaluate the growth phenotype of a set of plants, a 1 mg concentration of 100 Mm (solution QD-2). This solution was diluted serially with water with or without Triton X-100, ethanol or DMSO and used directly for measurement of effects on seed germination or applied using a microliter syringe to foliage to evaluate growth effects on plants.
With seed germination, the compound was evaluated against five species: cabbage (Early Jersey Wakefield), radish (Scarlet Turnip White Tipped), carrot (Danvers Half Long), tomato (Rutgers) and sorghum (DeKalb 18). With water dilutions, seed germination of all species was inhibited at 10 μM (an aqueous dilution of 10 μl of 100 Mm 1:1000 in 100 μl of water) (Final DMSO concentration of 1:10,000=0.01%). Germination of tomato was inhibited at 10μ1/100 µl of an aqueous dilution of 1:10,000=1 μM final concentration.

Tomato plants = experiment: growth of plants in peat after treatment; format: in vivo
Procedure: Tomato plants about 3.5 cm high at the time of treatment were grown in peat in a flat of 1.5 inch diameter compartments and were treated with either aqueous simalikalactone (solution QD-1) or aqueous glaucarubolone (solution QD-2) containing 0.1% Triton X-100. The final volume/plant was 10 μ1 for the aqueous solution and 200 µl of the aqueous solution containing Triton X-100. […] With the aqueous treatment, plants also were inhibited but not as markedly as with detergent.

HeLa cells = experiment: growth of HeLa cells under different redox poise; format: cell-based; settings: 10^−7 M, no drug 725
Procedure: The reduced environment was obtained by addition of 100 μM cysteine and the oxidized environment by addition of 10 μM ter-butylhydroperoxide.

M17/Adr = settings: multidrug resistant, p-glycoprotein expressing mammary tumor versus leukemia
NADH oxidase = NADH oxidase activity of CFK microsomes from uninfected cells; settings: read-out: ED50, inhibition of NADH oxidase activity; Plasma membrane-free CFK microsomes (Golgi-enriched) from uninfected cells

What does the source list for `CC1=CC(=O)C(O)C2(C)C1CC1OC(=O)C(O)C3C(C)C(O)C4(O)OCC13C42` (stereo not drawn) [Glaucarubolone, glaucarubolone]?
MTD [1]: 151 mg/kg; Cures ([2]; C38, IV at MTD, cured/total mice): 1/5; in vivo activity against C38, in words ([2]; mouse, in vivo): therapeutic activity; killing of HIV infected MOLT-4 cells compared to uninfected cells [3]: differentially killed at two log orders less; cytopathic effect of human rhinovirus-14 (human rhinovirus-14): Cytopathic effect was delayed; lowest concentrations at which inhibitions of germination were observed ([4]; DMSO and ethanol dilutions 1:10^6 or 1:10^7, solvents themselves retarded germination): 10-100 Nm; concentration at which seed germination was inhibited ([4]; all five species, water dilutions): 10 µM; concentration at which seed germination was inhibited ([4]; tomato, aqueous dilution 1:10,000): 1 µM; effect on tomato plants, in words (Tomato plants; 1:1000 and 1:10,000 dilutions in detergent solution, 30 days after treatment): still inhibited; effect on tomato plants, in words (Tomato plants; 100 Mm diluted 1:100 in 0.1% Triton X-100): did not grow and eventually died; Growth HeLa cells after 72 h, Oxidized (HeLa cells; 10 μM ter-butylhydroperoxide): 500 cells/mm^2; Growth HeLa cells after 72 h, Reduced (HeLa cells; 100 μM cysteine): 700 cells/mm^2; Growth HeLa cells after 72 h, In situ (HeLa cells): 720 cells/mm^2; differential / selectivity for M17/Adr (Mam 17/Adr) (M17/Adr): demonstrated selectivity; EC50 (NADH oxidase): > 10 µM
